± gives the standard deviation of the averaged measurements.
Assays:
Test in all cases: level (log10 ratio to DMSO vehicle control); higher = higher biomarker level / cell amount than vehicle control
Details in all cases: in DMSO
[1] = compound: C=C(C)C(=O)OCC(F)(F)C(F)(F)C(F)(F)C(F)(F)C(F)(F)C(F)(F)C(F)(F)F
Method: (§1)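 BioMAP Diversity Plus panel of 12 human primary cell co-culture systems (3C, 4H, LPS, SAg, BT, BF4T, BE3C, CASM3C, HDF3CGF, KF3CT, MyoF, Mphg). Compounds were added 1 h before stimulation and left for 24 h (MyoF 48 h; BT 72 h for soluble read-outs or 6 d for IgG). Biomarkers were read by ELISA, cytotoxicity by SRB, PBMC viability and proliferation by Alamar Blue. Each well value was divided by the mean of 8 DMSO control wells on the same plate and log10 transformed; duplicate blinded samples were tested at 4 concentrations.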

[2] = compound: C=CC(=O)OCCC(F)(F)C(F)(F)C(F)(F)C(F)(F)F [2-(Perfluorobutyl)ethyl acrylate]
Method: as §1

Perfluorooctanamide = compound: NC(=O)C(F)(F)C(F)(F)C(F)(F)C(F)(F)C(F)(F)C(F)(F)C(F)(F)F [Perfluorooctanamide]
Method: as §1

[3] = compound: O=S(=O)(O)C(F)(F)C(F)(F)C(F)(F)C(F)(F)C(F)(F)C(F)(F)C(F)(F)C(F)(F)F [Perfluorooctanesulfonic acid]
Method: as §1

[4] = compound: O=S(=O)(O)C(F)(F)C(F)(F)C(F)(F)C(F)(F)F [Perfluorobutanesulfonic acid]
Method: as §1

1H,1H-Heptafluorobutanol = compound: OCC(F)(F)C(F)(F)C(F)(F)F [1H,1H-Heptafluorobutanol]
Method: as §1

Test System	level (log10) ([1]; 6700 nM)	level (log10) ([1]; 20000 nM)	level (log10) ([2]; 6700 nM)	level (log10) ([2]; 20000 nM)	level (log10) ([2]; 60000 nM)	level (log10) (Perfluorooctanamide; 6700 nM)	level (log10) (Perfluorooctanamide; 20000 nM)	level (log10) (Perfluorooctanamide; 60000 nM)	level (log10) ([3]; 6700 nM)	level (log10) ([3]; 20000 nM)	level (log10) ([3]; 60000 nM)	level (log10) ([4]; 6700 nM)	level (log10) ([4]; 20000 nM)	level (log10) ([4]; 60000 nM)	level (log10) (1H,1H-Heptafluorobutanol; 6700 nM)	level (log10) (1H,1H-Heptafluorobutanol; 20000 nM)	level (log10) (1H,1H-Heptafluorobutanol; 60000 nM)
CASM3C:CD142/Tissue Factor	0.002 ± 0.0057	-0.0195 ± 0.0021	-0.027 ± 0.011	-0.0455 ± 0.0092	-0.0585 ± 0.0092	-0.0085 ± 0.046	-0.0095 ± 0.0064	-0.003 ± 0.051	-0.035 ± 0.02	-0.033 ± 0.048	-0.0525 ± 0.09	-0.0085 ± 0.0035	-0.0115 ± 0.018	0.0135 ± 0.012	0.0005 ± 0.0078	-0.0225 ± 0.013	-0.015 ± 0.0057
MyoF:CD106/VCAM-1	0.0035 ± 0.015	0.019 ± 0.0099	-0.019 ± 0.0085	-0.044 ± 0.027	-0.101 ± 0.045	-0.0115 ± 0.015	0.014 ± 0.0014	-0.0185 ± 0.011	0.0055 ± 0.0021	0.0085 ± 0.016	0.0165 ± 0.023	-0.004 ± 0.0028	0.0085 ± 0.0021	0.0155 ± 0.016	0.0025 ± 0.022	0.0025 ± 0.011	0.008 ± 0.0014
MyoF:bFGF	0.005 ± 0.016	0.015 ± 0.025	-0.0035 ± 0.0021	-0.003 ± 0.0042	0.02 ± 0.011	-0.005 ± 0.0014	-0.0055 ± 0.015	0.007 ± 0.0014	-0.004	-0.0185 ± 0.028	-0.0125 ± 0.018	0.0065 ± 0.013	0.0105 ± 0.018	-0.0065 ± 0.0064	-0.003 ± 0.0042	0.0045 ± 0.0078	0.01 ± 0.017
lMphg:SRB	-0.012 ± 0.016	-0.015 ± 0.016	0.0085 ± 0.0078	-0.0095 ± 0.0064	-0.0155 ± 0.012	-0.0015 ± 0.016	-0.0145 ± 0.0021	-0.0075 ± 0.011	-0.002 ± 0.014	-0.004 ± 0.018	0.009 ± 0.02	0.002 ± 0.013	-0.0155 ± 0.011	-0.0155 ± 0.0064	-0.0045 ± 0.0064	-0.002 ± 0.018	-0.005 ± 0.0014
lMphg:CXCL8/IL-8	-0.042 ± 0.021	-0.0315 ± 0.047	0.013 ± 0.014	0.0045 ± 0.0021	0.0055 ± 0.0078	0.013 ± 0.028	0.0285 ± 0.012	0.031 ± 0.042	-0.0385 ± 0.018	-0.003 ± 0.025	0.0585 ± 0.1	0.022 ± 0.0028	0.06 ± 0.0085	0.183 ± 0.0099	0.003 ± 0.055	0.0295 ± 0.036	0.0415 ± 0.021
HDF3CGF:TIMP-2	0.0535 ± 0.0092	0.0035 ± 0.056	-0.0725 ± 0.057	-0.0805 ± 0.047	-0.0995 ± 0.035	-0.0085 ± 0.005	-0.035 ± 0.011	-0.0145 ± 0.022	-0.028 ± 0.0085	-0.0695 ± 0.043	-0.149 ± 0.018	0.0135 ± 0.037	0.017 ± 0.023	0.031 ± 0.014	-0.0055 ± 0.025	0.018 ± 0.033	-0.029 ± 0.037
CASM3C:PAI-I	-0.005 ± 0.0014	-0.005 ± 0.0028	0.0105 ± 0.021	-0.0035 ± 0.011	0 ± 0.013	-0.0015 ± 0.0064	0.004 ± 0.0057	-0.0015 ± 0.016	-0.001 ± 0.0071	0 ± 0.0014	0.0095 ± 0.0021	-0.0095 ± 0.012	0.0035 ± 0.0064	0.007 ± 0.0099	0.0015 ± 0.0092	-0.0045 ± 0.00071	0.009 ± 0.0042
HDF3CGF:CXCL9/MIG	0.02 ± 0.024	0.0165 ± 0.015	-0.0335 ± 0.019	-0.176 ± 0.064	-0.498 ± 0.071	-0.014 ± 0.013	0.0115 ± 0.012	0.0415 ± 0.0078	-0.011 ± 0.013	-0.0085 ± 0.029	-0.0595 ± 0.0064	-0.01 ± 0.0085	-0.0145 ± 0.0092	-0.0035 ± 0.005	0.0035 ± 0.028	-0.0005 ± 0.022	-0.008 ± 0.033
MyoF:Collagen IV	-0.0155 ± 0.0064	0.0195 ± 0.016	0.0195 ± 0.0078	-0.0085 ± 0.012	0.0295 ± 0.035	-0.0335 ± 0.026	-0.0345 ± 0.042	-0.079 ± 0.064	0.0045 ± 0.039	-0.0005 ± 0.005	0.037 ± 0.034	0.04 ± 0.0057	0.0055 ± 0.033	0.016 ± 0.013	-0.0305 ± 0.025	-0.037 ± 0.033	-0.029 ± 0.0071
CASM3C:CXCL9/MIG	0.0005 ± 0.011	0.014 ± 0.014	-0.0005 ± 0.012	-0.025 ± 0.0071	-0.121 ± 0.014	-0.0205 ± 0.037	0.0135 ± 0.0021	0.0365 ± 0.032	-0.0085 ± 0.00071	-0.003 ± 0.0014	0.0705 ± 0.032	0.01 ± 0.028	0.0135 ± 0.035	0.0465 ± 0.0092	0.003 ± 0.0014	-0.006 ± 0.013	0.015 ± 0.044
HDF3CGF:SRB	0.0255 ± 0.11	0.044 ± 0.12	-0.0125 ± 0.057	-0.092 ± 0.073	-0.0805 ± 0.06	0.01 ± 0.028	-0.0025 ± 0.033	0.0285 ± 0.019	0.008 ± 0.037	-0.009 ± 0.027	-0.0365 ± 0.035	0.018 ± 0.03	0.023 ± 0.013	0.004 ± 0.033	-0.047 ± 0.067	0.0415 ± 0.011	0.025 ± 0.033
MyoF:CXCL8/IL-8	-0.0215 ± 0.013	0.013 ± 0.014	-0.0045 ± 0.0078	-0.0025 ± 0.016	0.02 ± 0.025	-0.01 ± 0.0071	0.0135 ± 0.023	0.03 ± 0.014	-0.057 ± 0.0028	-0.0755 ± 0.013	-0.025 ± 0.017	0.007 ± 0.042	0.0425 ± 0.021	0.0665 ± 0.0064	-0.0145 ± 0.033	0.016 ± 0.02	0.008 ± 0.0057
lMphg:CD69	-0.0135 ± 0.018	-0.004 ± 0.038	-0.0065 ± 0.016	-0.006 ± 0.011	-0.024 ± 0.0057	0.0175 ± 0.018	-0.005 ± 0.025	-0.0825 ± 0.074	-0.046	-0.0585 ± 0.029	-0.102 ± 0.091	0.0035 ± 0.005	-0.0195 ± 0.005	-0.0525 ± 0.043	-0.0555 ± 0.066	-0.052 ± 0.098	-0.0465 ± 0.066
BE3C:MMP-1	0.02 ± 0.021	0.0655 ± 0.064	0.0175 ± 0.028	-0.007 ± 0.016	0.0705 ± 0.022	0.0075 ± 0.0078	0.014 ± 0.0071	0.022 ± 0.018	0.149 ± 0.067	0.155 ± 0.012	-0.0685 ± 0.26	0.0055 ± 0.028	-0.011 ± 0.0057	0.019 ± 0.013	0.0035 ± 0.0078	-0.015 ± 0.02	0.0025 ± 0.028
lMphg:CD40	-0.0265 ± 0.0064	-0.025 ± 0.0042	-0.002	-0.0165 ± 0.0064	-0.0255 ± 0.0064	-0.0285 ± 0.018	-0.007 ± 0.014	0.045 ± 0.0085	-0.027 ± 0.013	-0.0025 ± 0.005	0.02 ± 0.0014	-0.0015 ± 0.0064	-0.0065 ± 0.0021	0.009 ± 0.0014	0.0045 ± 0.025	-0.0125 ± 0.059	-0.0105 ± 0.029
BE3C:Keratin 8/18	-0.008 ± 0.017	-0.028 ± 0.027	-0.0135 ± 0.025	0 ± 0.016	0.006 ± 0.013	-0.001 ± 0.0085	-0.009 ± 0.0028	-0.0105 ± 0.0078	0.0205 ± 0.0021	0.016 ± 0.011	-0.073 ± 0.04	0.003 ± 0.0014	-0.0035 ± 0.00071	-0.0165 ± 0.0078	-0.023 ± 0.041	0.0035 ± 0.019	-0.009 ± 0.037
